In ChEMBL document CHEMBL1133499, “Design, synthesis, and in vitro biological activity of indole-based factor Xa inhibitors” (Bioorg Med Chem Lett, 2000):
pKi: −log10 of the molar value.

Assays:
[1] = biological target: Coagulation factor X (Homo sapiens, UniProt P00742); assay: In vitro inhibition of human Coagulation factor X.
[2] = biological target: Prothrombin (Homo sapiens, UniProt P00734); assay: In vitro inhibition of human Coagulation factor II.

Coagulation factor X, sequence (P00742 41-179 limits assumed): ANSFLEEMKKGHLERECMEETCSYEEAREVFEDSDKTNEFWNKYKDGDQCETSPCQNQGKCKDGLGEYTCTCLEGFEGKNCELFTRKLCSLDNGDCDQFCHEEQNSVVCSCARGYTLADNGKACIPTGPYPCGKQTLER
Coagulation factor X, sequence (P00742 235-488 limits assumed): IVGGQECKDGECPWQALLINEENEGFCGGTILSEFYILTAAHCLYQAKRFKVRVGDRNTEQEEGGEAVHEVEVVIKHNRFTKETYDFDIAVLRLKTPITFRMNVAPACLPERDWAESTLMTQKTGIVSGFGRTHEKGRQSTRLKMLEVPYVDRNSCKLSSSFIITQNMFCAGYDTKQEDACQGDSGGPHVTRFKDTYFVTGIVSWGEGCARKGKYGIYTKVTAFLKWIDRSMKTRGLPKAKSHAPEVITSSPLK

Row | Compound | pKi [1] | pKi [2]
1 | N=C(N)c1ccc(CNc2ccc3ccn(-c4ccc(C(=N)N)cc4)c3c2)cc1 | 6.08 | 5.34
2 | N=C(N)c1ccc(-n2ccc3ccc(NCc4cccc(C(=N)N)c4)cc32)cc1 | 6.47 | 5.42
3 | CC(=N)N1CCC(Oc2ccc3cc(C(=O)NC(CC(=O)O)C(=O)O)n(Cc4ccc5ccc(C(=N)N)cc5c4)c3c2)CC1 (configuration not stated) | 7.70 | 5.63
4 | N=C(N)c1ccc(-n2ccc3ccc(NC(=O)c4cccc(C(=N)N)c4)cc32)cc1 | 6.80 | 5.63
5 | N=C(N)c1ccc(-n2c3ccccc3c3ccc(OCc4ccc5ccc(C(=N)N)cc5c4)cc32)cc1 | 7.22 | 5.70
6 | CCOC(=O)c1cc2ccc(OC3CCN(C(C)=N)CC3)cc2n1Cc1ccc2ccc(C(=N)N)cc2c1 | 9.22 | 6.44
7 | COC(=O)c1cc2ccc(OC3CCN(C(C)=N)CC3)cc2n1Cc1ccc2ccc(C(=N)N)cc2c1 | 9.70 | 6.74
8 | N=C(N)c1cccc(Oc2ccc3c4ccccc4n(Cc4ccc5ccc(C(=N)N)cc5c4)c3c2)c1 | 9.05 | 6.77

Continued by rising pKi [2], values first:

Row | pKi [1] | pKi [2] | Compound
9 | 6.72 | 5.40 | N=C(N)c1cccc(CNc2ccc3ccn(-c4cccc(C(=N)N)c4)c3c2)c1
10 | – | 5.45 | N=C(N)c1ccc(CNc2ccc3ccn(Cc4ccc(C(=N)N)cc4)c3c2)cc1
11 | 8.46 | 5.98 | CC(=N)N1CCC(Oc2ccc3cc(C(=O)N(C)C)n(Cc4ccc5ccc(C(=N)N)cc5c4)c3c2)CC1
12 | 7.52 | 6.24 | N=C(N)c1ccc(-n2ccc3ccc(NCc4ccc5ccc(C(=N)N)cc5c4)cc32)cc1
13 | 8.34 | 6.28 | CC(=N)N1CCC(Oc2ccc3cc(C(=O)O)n(Cc4ccc5ccc(C(=N)N)cc5c4)c3c2)CC1
14 | – | 6.68 | N=C(N)c1ccc(Oc2ccc3c4ccccc4n(Cc4ccc5ccc(C(=N)N)cc5c4)c3c2)cc1
15 | 8.40 | 7.05 | N=C(N)c1ccc2ccc(Cn3c4ccccc4c4ccc(OC5CCNCC5)cc43)cc2c1
16 | 8.30 | 7.30 | CN(C)C(=O)COc1ccc2c3ccccc3n(Cc3ccc4ccc(C(=N)N)cc4c3)c2c1
17 | 8.80 | 7.40 | CC(=N)N1CCC(Oc2ccc3c4ccccc4n(Cc4ccc5ccc(C(=N)N)cc5c4)c3c2)CC1
